According to paper PMC8151276, “An Integrated Approach toward NanoBRET Tracers for Analysis of GPCR Ligand Engagement” (Molecules, 2021):

How the values were obtained:
Assay type in all cases: binding
FZD1 = target: T1, FZD1 (Homo sapiens, UniProt Q9UP38); experiment: NanoBRET screen HiBiT-FZD1 in HEK293
T1 construct: purchased Promega (in-house HiBiT-GPCR construct library, NanoBRET)
Protocol: (§1) Each tracer candidate was screened across the entire library of HiBiT-GPCR constructs using NanoBRET as the detection modality. As depicted in Figure 4A, the specificity of interactions was evaluated through decrease in BRET due to competitive displacement of a bound tracer by excess parental compound. Each tracer was analyzed for binding to each HiBiT-GPCR fusion in the absence and in the presence of competing parental compound. Briefly, HEK293 cells were transfected with HiBiT-GPCR constructs diluted into promoterless DNA to reduce expression and maximize translocation to the cell surface. Each tracer candidate was then screened at concentrations of 1 μM and 0.1 μM across cells expressing these fusions. Cells were treated for 1.5 h with tracer either alone or in the presence of 20 μM competing parental compound (i.e., control). BRET was measured upon addition of purified LgBiT and subsequent complementation with HiBiT genetically fused to a GPCR. The specificity of interactions was assessed through a decrease in BRET signal due to competitive displacement of the bound tracer. To further gauge the robustness of these interactions, the fold response over the control (i.e., BRETtracer/BRETcontrol) was calculated. We chose a 1.5-fold response, which translates to ≥7-fold signal over noise as the minimal threshold required to score an interaction as positive. […]. Below we highlight the screening results obtained for our exemplary fluorescent tracers based on Clozapine, Amitriptyline and AZD1283.
(§2) HiBiT-GPCR DNA constructs were diluted in 10 mM Tris pH 8 to a final concentration of 0.01 μg/μL, arrayed in 96-well plates and stored at −20 °C. For transfection, HEK293 cells were suspended in Opti-MEM (without phenol red) supplemented with 2% fetal bovine serum (Seradigm) and 100 units/mL penicillin–streptomycin (Gibco) at a final concentration of 220,000 cells/mL and dispensed into white 96-well plates at 90 μL/well. Subsequent transfections and screens were carried using an Agilent Bravo Automated Liquid Handling Platform. First, the 96-well HiBiT DNA arrays were diluted 25-fold in Opti-MEM (without serum or phenol red) to a final concentration of 0.0004 μg/μL and 20 μL of the diluted DNAs were transferred into new 96-well plates. Next, promoterless carrier DNA (1 μg/μL) was diluted 25-fold (0.04 μg/μL) and then dispensed into the diluted arrays at 20 μL/well. Following brief mixing, Viafect transfection reagent (Promega) diluted 16-fold into Opti-MEM was dispensed into the plates at 40 μL/well. After mixing by pipetting, plates were incubated for 10 min on the pipetting station deck. The DNA-transfection reagent complexes were then added to plates containing cells. To facilitate the screen, 10 μL of DNA-transfection reagent complexes were added in duplicates to the top 4 and bottom 4 rows, resulting in two identical 48-well arrays per plate. Plates with transfected cells were incubated for 18–20 h at 37 °C/5% CO2. A screen of each tracer across the entire library using two different concentrations requires duplicate plates of transfected cells. Depending on the number of tracers being screened, transfections can be scaled up using the same ratios. The next day, for each tracer, four 20× screening solutions in tracer dilution buffer (Promega) were prepared: two duplicates at final concentration of 20 μM and two duplicates at a final concentration of 2 μM. A competing unmodified compound was added to one of each duplicate at a final concentration of 400 μM. The four resulting solutions were diluted 4-fold in Opti-MEM without serum or phenol red to generate 5× solutions (5 µM and 0.5 µM tracer +/− 100 μM competing compound). To screen the library, a BioTek MultiFlo FX liquid dispenser was used to dispense 22.5 µL of tracer solution to the top 4 rows and 22.5 µL tracer + competing compound solution to the 4 bottom rows. Plates were briefly mixed on an orbital shaker and incubated for 1.5 h at room temperature. […]

CNR1 = target: T2, CNR1 (Homo sapiens, UniProt P21554); experiment: NanoBRET screen HiBiT-CNR1 in HEK293
T2 construct: purchased Promega (in-house HiBiT-GPCR construct library, NanoBRET)
T2 sequence (P21554 whole entry): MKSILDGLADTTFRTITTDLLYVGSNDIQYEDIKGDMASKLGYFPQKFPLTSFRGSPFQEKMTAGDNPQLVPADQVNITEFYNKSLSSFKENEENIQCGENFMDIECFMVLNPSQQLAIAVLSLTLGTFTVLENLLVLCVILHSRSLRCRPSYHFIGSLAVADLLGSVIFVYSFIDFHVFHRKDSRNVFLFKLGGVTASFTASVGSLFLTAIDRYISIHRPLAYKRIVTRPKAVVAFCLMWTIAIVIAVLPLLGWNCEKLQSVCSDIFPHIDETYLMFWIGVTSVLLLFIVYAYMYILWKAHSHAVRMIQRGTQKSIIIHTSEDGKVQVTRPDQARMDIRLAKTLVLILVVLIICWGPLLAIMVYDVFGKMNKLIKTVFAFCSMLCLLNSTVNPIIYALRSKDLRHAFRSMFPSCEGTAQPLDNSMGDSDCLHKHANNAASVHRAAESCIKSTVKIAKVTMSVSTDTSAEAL
Protocol: as §1, §2

LHCGR = target: T3, LHCGR (Homo sapiens, UniProt P22888); experiment: NanoBRET screen HiBiT-LHCGR in HEK293
T3 construct: purchased Promega (in-house HiBiT-GPCR construct library, NanoBRET)
T3 sequence (P22888 27-699): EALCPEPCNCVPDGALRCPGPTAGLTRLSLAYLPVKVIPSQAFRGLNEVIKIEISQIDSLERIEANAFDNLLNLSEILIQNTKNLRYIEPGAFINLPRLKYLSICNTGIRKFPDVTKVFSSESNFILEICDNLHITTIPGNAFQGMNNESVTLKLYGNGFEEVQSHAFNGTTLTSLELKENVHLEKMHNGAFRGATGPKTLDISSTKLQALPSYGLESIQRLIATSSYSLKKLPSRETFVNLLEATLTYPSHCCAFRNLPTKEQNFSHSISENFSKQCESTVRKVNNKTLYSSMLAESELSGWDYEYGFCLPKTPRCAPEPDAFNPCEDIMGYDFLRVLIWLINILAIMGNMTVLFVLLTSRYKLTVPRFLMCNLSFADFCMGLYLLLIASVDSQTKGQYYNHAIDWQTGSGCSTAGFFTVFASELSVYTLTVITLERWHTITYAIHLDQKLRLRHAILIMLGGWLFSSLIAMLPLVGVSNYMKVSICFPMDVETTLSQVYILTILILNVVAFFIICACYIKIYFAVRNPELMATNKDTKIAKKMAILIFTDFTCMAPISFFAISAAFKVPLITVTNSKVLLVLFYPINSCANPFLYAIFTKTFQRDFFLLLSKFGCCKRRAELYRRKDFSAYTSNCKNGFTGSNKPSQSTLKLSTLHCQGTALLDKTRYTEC
Protocol: as §1, §2

T1 sequence (Q9UP38 70-647): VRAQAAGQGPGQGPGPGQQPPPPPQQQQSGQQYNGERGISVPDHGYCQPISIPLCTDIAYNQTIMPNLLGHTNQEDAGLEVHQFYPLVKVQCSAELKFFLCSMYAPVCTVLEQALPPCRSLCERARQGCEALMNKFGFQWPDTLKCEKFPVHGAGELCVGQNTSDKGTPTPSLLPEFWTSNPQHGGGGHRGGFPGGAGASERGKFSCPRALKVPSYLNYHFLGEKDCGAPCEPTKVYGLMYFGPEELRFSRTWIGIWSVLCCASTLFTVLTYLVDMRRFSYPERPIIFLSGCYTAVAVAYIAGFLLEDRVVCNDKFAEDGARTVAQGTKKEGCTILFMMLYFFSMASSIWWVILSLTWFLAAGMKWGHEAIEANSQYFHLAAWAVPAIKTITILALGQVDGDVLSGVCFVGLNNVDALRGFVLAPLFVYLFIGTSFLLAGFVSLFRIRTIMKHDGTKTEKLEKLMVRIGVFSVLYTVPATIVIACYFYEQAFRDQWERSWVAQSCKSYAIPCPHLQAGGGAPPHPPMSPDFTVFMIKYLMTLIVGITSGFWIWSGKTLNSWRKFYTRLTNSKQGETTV

SMILES | NanoBRET Fold Response (FZD1; FZD1, 0.1μM tracer) | NanoBRET Fold Response (FZD1; FZD1, 1μM tracer) | NanoBRET Fold Response (CNR1; CNR1, 0.1μM tracer) | NanoBRET Fold Response (CNR1; CNR1, 1μM tracer) | NanoBRET Fold Response (LHCGR; LHCGR, 0.1μM tracer) | NanoBRET Fold Response (LHCGR; LHCGR, 1μM tracer) | further results
CN1CCN(C2=Nc3cc(Cl)ccc3Nc3ccc(CNC(=O)CCOCCOCCOCCOCCNC(=O)CCc4ccc5n4[B-](F)(F)[N+]4=C(c6ccc[nH]6)C=CC4=C5)cc32)CC1 [Clozapine-b-2-NB590] | 1.00 | 0.99 | 1.01 | 1.03 | 1.06 | 0.99 | –
COc1ccc2c(n1)c(CCNC(C)=O)cn2CCNC(=O)CCc1ccc2n1[B-](F)(F)[N+]1=C(c3ccc[nH]3)C=CC1=C2 [Azamelatonin-1-NB590] | – | – | – | – | – | – | NanoBRET Fold Response (FZD1; 0.1μM tracer): 1.10; NanoBRET Fold Response (FZD1; 1μM tracer): 1.10; NanoBRET Fold Response (CNR1; 0.1μM tracer): 1.01; NanoBRET Fold Response (CNR1; 1μM tracer): 0.95; NanoBRET Fold Response (LHCGR; 0.1μM tracer): 1.03; NanoBRET Fold Response (LHCGR; 1μM tracer): 1.05
O=C(CCc1ccc2n1[B-](F)(F)[N+]1=C(c3ccc[nH]3)C=CC1=C2)NCc1ccc(C(=O)NCCOCCOCCNCC(O)COc2cccc3ccccc23)cc1 (stereo not drawn) [Propranolol-3-NB590] | – | – | – | – | – | – | NanoBRET Fold Response (FZD1; FZD1, 0.1μM): 0.97; NanoBRET Fold Response (FZD1; FZD1, 1μM): 0.98; NanoBRET Fold Response (CNR1; CNR1, 0.1μM): 0.99; NanoBRET Fold Response (CNR1; CNR1, 1μM): 1.00; NanoBRET Fold Response (LHCGR; LHCGR, 0.1μM): 1.04; NanoBRET Fold Response (LHCGR; LHCGR, 1μM): 1.00
O=C(CCOCCOCCOCCOCCNC(=O)CCc1ccc2n1[B-](F)(F)[N+]1=C(c3ccc[nH]3)C=CC1=C2)NCCCN1CCN(C2=Nc3cc(Cl)ccc3Nc3ccccc32)CC1 [Clozapine-a-2-NB590] | 0.98 | 0.93 | 1.02 | 1.04 | 0.93 | 1.05 | –
